Entries after “also recorded” stand apart in the source; their conditions may differ.
How the values were obtained:
BDNF [1] = assay: BDNF ELISA of hippocampus and PFC, stressed mice; format: in vivo; settings: UCMS-stressed mice; herbs and NHT 30 mg/kg, escitalopram 15 mg/kg i.p., 3 weeks; vs vehicle
Protocol: Mice were decapitated, and their brains were placed on ice. Serial sections (1 mm wide) were cut onto slides, and tissue punches of the hippocampus and PFC (1.7 mm diameter) were taken. Tissue punches were homogenized in cold extraction buffer (Tris-buffered saline, pH 8.0, with 1% NP-40, 10% glycerol, 5 mM sodium metavanadate, 10 mM PMSF, 100 μg/ml aprotinin and 10 μg/ml leupeptin). Homogenates were acidified with 0.1 M HCl (pH 3.0), incubated at room temperature (22-24° C.) for 15 min, and neutralized (pH 7.6) with 0.1 M NaOH. Homogenates were then microfuged at 7000×g for 10 min. BDNF levels were quantified using sandwich ELISA (R&D systems, Minneapolis, MN, USA) according to the manufacturer's instructions.

BDNF [2] = assay: Hippocampal BDNF levels (ELISA), Example 7; format: in vivo; settings: stressed mice; 30 mg/kg (escitalopram 15 mg/kg) i.p., 3 weeks; vs vehicle
Protocol: Assessment of brain BDNF levels. Tissues are homogenized in cold extraction buffer (Tris-buffered saline, pH 8.0, with 1% NP-40, 10% glycerol, 5 mM sodium metavanadate, 10 mM PMSF, 100 mg/ml aprotinin and 10 mg/ml leupeptin). Homogenates are acidified with 0.1 M HCl (pH 3.0), incubated at room temperature (22-24° C.) for 15 min, and neutralized with 0.1 M NaOH (pH 7.6). Homogenates are then microfuged at 7,000 g for 10 min. BDNF levels in the supernatant are evaluated using sandwich ELISA.

stressed mice [3] = assay: Tail suspension test (TST), UCMS-stressed mice, Examples 1-3; format: in vivo; settings: UCMS-stressed male ICR mice; herbs and NHT 30 mg/kg, escitalopram 15 mg/kg i.p., 3 weeks; vs vehicle
stressed mice [4] = assay: EPM, UCMS-stressed mice, Example 7; format: in vivo
Protocol: Animals. ICR outbred mice (Envigo RMS (Harlen), Israel) are kept in the vivarium of the Open University lab in Hadassah medical center, Jerusalem. Mice are kept on a reversed 12 h light/dark cycle and given ad libitum access to food and water. All experiments are performed during the dark phase under red light (7:00-19:00). All experiments have been approved by the committee for animal care and use according to the NIH guidelines. Drugs. Drugs are dissolved in saline and 1% DMSO to the desired concentration and administered i.p. Herbal mixture and Shan-zha (30 mg/kg) will be prepared by dissolving each component (KPC Products, Inc., CA, USA) to a final concentration of 0.47 mg/ml. […] Unpredictable chronic mild stress (UCMS). Mice are exposed to UCMS for 4 weeks at the age of 4 weeks as previously described. Elevated plus maze (EPM). This task is based on the natural tendency of mice to avoid open and elevated places. EPM are performed as previously described. Anxiety-like behavior are expressed as the time the animal spent in the open, unprotected arms of the maze.

stressed mice [5] = assay: Evaluation of sexual function (number of mounts), stressed mice; format: in vivo; settings: UCMS-stressed male mice, 30 min with female in estrus, Shan-zha and NHT 30 mg/kg, escitalopram 15 mg/kg i.p., 3 weeks, vs vehicle
Protocol: Crataegus pinnatifida, Triticum aestivum, Lilium brownii and Fructus zizyphi jujuba were purchased as freeze-dried granules (KPC Products, Inc., Irvine, CA, USA). Each herb was dissolved in saline with 1% dimethylsulfoxide (DMSO) to a final concentration of 0.47 mg/ml and injected i.p. individually (30 mg/kg) or with the other components to form the formula (NHT, 30 mg/kg). […] Vehicle treatment included i.p. injection of saline with 1% DMSO. All treatments were carried out for 3 weeks. Each male mouse was placed with a female mouse in estrus in the male's home cage during the dark phase under red dim light for 30 min. Number of mounts were coded by an observer blind to the treatment.

dams = assay: EPM in dams after restrain stress during gestation; format: in vivo, mice; settings: PND21, 15 mg/kg s.c. daily PND1-PND21
Protocol: The EPM task was performed as previously described. Shortly, each mouse was placed in the center of the maze and video recorded for 5 min. Anxiety-like behavior was expressed as the time the mouse spent in the open, unprotected arms of the maze.
Female (n=40) and male (n=5) ICR outbred mice (100 days old; Envigo RMS, Jerusalem, Israel) were housed at 22±1° C. under 12 h light/dark cycles in the vivarium of the Open University lab in Hadassah medical center, Jerusalem. Mice had ad libitum access to rodent chow and water. Mice were housed in standard cages with a bed of woodchips and a piece of cotton wool for enrichment. All experiments were performed during the dark phase of the cycle. Male mice were used to father pups and were housed apart (5 per cage) from females until mating. […] Once a vaginal plug was identified, the females were transferred to a separate cage until parturition. Overall, 455 pups were delivered of which 317 (male: n=165; female: n=152) were designated for this study. Unassessed pups were maintained with littermates to avoid additional stress and ensure similar conditions. […]
Following mating, dams were separated to individual cages and were observed periodically to ensure onset of pregnancy. […] Shortly after, anxiety-like behavior was assessed on the EPM and dams were assigned to treatment group (escitalopram/shan-zha/vehicle). […]

stressed mice [6] = assay: Forced Swim Test (FST), UCMS-stressed mice, Example 7; format: in vivo; settings: 30 mg/kg (escitalopram 15 mg/kg) i.p., 3 weeks, vs vehicle
Protocol: Animals. ICR outbred mice (Envigo RMS (Harlen), Israel) are kept in the vivarium of the Open University lab in Hadassah medical center, Jerusalem. Mice are kept on a reversed 12 h light/dark cycle and given ad libitum access to food and water. All experiments are performed during the dark phase under red light (7:00-19:00). All experiments have been approved by the committee for animal care and use according to the NIH guidelines. Drugs. Drugs are dissolved in saline and 1% DMSO to the desired concentration and administered i.p. Herbal mixture and Shan-zha (30 mg/kg) will be prepared by dissolving each component (KPC Products, Inc., CA, USA) to a final concentration of 0.47 mg/ml. […] Unpredictable chronic mild stress (UCMS). Mice are exposed to UCMS for 4 weeks at the age of 4 weeks as previously described. Forced Swim Test (FST). This test is based upon the evaluation of immobility as a measure of behavioral despair and are performed as previously described. Depressive-like behavior are expressed as the time the mouse was immobile defined as cessation of limb movements except minor movement necessary to keep the mouse afloat.

CN(C)CCC[C@@]1(c2ccc(F)cc2)OCc2cc(C#N)ccc21 [escitalopram]
BDNF levels in the PFC (BDNF [1]): elevations in BDNF levels in the PFC compared to vehicle-treated mice; also recorded: elevated BDNF levels in the PFC compared to vehicle | hippocampal BDNF levels (BDNF [1]): elevations in hippocampal BDNF levels compared to vehicle-treated mice; also recorded: elevated hippocampal BDNF levels compared to vehicle | hippocampal BDNF levels (BDNF [2]): Significant elevations in hippocampal BDNF levels | time spent immobile in the TST (depressive-like behavior) (stressed mice [3]): spent less time immobile in comparison with vehicle-treated mice; also recorded: reduced depressive-like behavior in the Tail suspension test (TST) compared to vehicle | anxiety-like behavior in the EPM (stressed mice [4]; stressed mice, 30 mg/kg (escitalopram 15 mg/kg) i.p., 3 weeks, vs vehicle): exhibited reduced anxiety-like behavior in the EPM compared to vehicle-treated stressed mice | time (seconds) spent in open arms in the EPM, FIG. 22 experiment (stressed mice [4]; vs saline, fractions SZ 50% and SZ 20% at 3 mg, listed as Escitalopram): Mice treated with saline spent significantly less time in open arms in comparison to other treatment groups | sexual function (number of mounts) (stressed mice [5]): significantly reduced sexual function compared to vehicle | sexual function (number of mounts) (stressed mice [5]; listed as Escitalopram): lower number of mounts in comparison with vehicle-treated mice | anxiety-like behavior in the EPM, treated stressed dams vs saline-treated stressed dams (dams; restrain stress during gestation, 15 mg/kg): saline-treated stressed dams demonstrated elevated anxiety-like behavior compared to both shan-zha- and escitalopram-treated stressed dams; also recorded: the stress-vehicle group demonstrated increased anxiety-like behavior compared to the naïve-vehicle, stress-escitalopram and stress-shan-zha groups | effect of stress manipulation on time spent in open arms within treatment group, dams (dams; stressed vs naive dams): Stress manipulation did not affect time spent in open arms | depressive-like behavior in the FST (stressed mice [6]): exhibited reduced depressive-like behavior in the FST compared to vehicle-treated stressed mice
